According to PubChem BioAssay (NCI):
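Interpolation was linear, between the two tested concentrations surrounding the appropriate level; five concentrations were tested over 48 hours in 96-well plates. At the GI50, growth is halved. TGI marks complete inhibition of growth.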

Assays:
Experiment in all cases: inhibition of tumour cell growth, NCI panel, 48 h
[1] = tested on: ACHN renal
[2] = tested on: MALME-3M melanoma
[3] = tested on: SW-620 colon
[4] = tested on: SN12C renal
[5] = tested on: HL-60(TB) leukemia
[6] = tested on: MDA-MB-231 breast
[7] = tested on: IGROV1 ovarian
[8] = tested on: KM12 colon
[9] = tested on: NCI-H460 lung
[10] = tested on: HCT-116 colon
[11] = tested on: OVCAR-3 ovarian
[12] = tested on: DU-145 prostate
[13] = tested on: RXF 393 renal
[14] = tested on: OVCAR-8 ovarian
[15] = tested on: K-562 leukemia
[16] = tested on: CCRF-CEM leukemia
[17] = tested on: SK-MEL-2 melanoma
[18] = tested on: NCI-H522 lung
[19] = tested on: SF-295 CNS
[20] = tested on: SNB-19 CNS
[21] = tested on: UACC-257 melanoma
[22] = tested on: NCI-H226 lung
[23] = tested on: EKVX NSCLC
[24] = tested on: PC-3 prostate
[25] = tested on: MDA-MB-435
[26] = tested on: HCT-15 colon
[27] = tested on: 786-0 renal
[28] = tested on: SK-OV-3 ovarian
[29] = tested on: SK-MEL-28 melanoma
[30] = tested on: HOP-92 NSCLC
[31] = tested on: TK-10 renal
[32] = tested on: SF-268 CNS
[33] = tested on: UO-31 renal
[34] = tested on: LOX IMVI melanoma
[35] = tested on: BT-549 breast
[36] = tested on: NCI/ADR-RES ovarian
[37] = tested on: M14 melanoma
[38] = tested on: SF-539 CNS
[39] = tested on: HCC-2998 colon
[40] = tested on: HOP-62 NSCLC
[41] = tested on: HT29 colon
[42] = tested on: NCI-H23 lung
[43] = tested on: SNB-75 CNS
[44] = tested on: UACC-62 melanoma
[45] = tested on: SK-MEL-5 melanoma
[46] = tested on: RPMI-8226 leukemia
[47] = tested on: A549 NSCLC
[48] = tested on: A498 renal
[49] = tested on: COLO 205 colon
[50] = tested on: T-47D breast
[51] = tested on: SR leukemia
[52] = tested on: OVCAR-4 ovarian
[53] = tested on: MCF7 breast
[54] = tested on: HS 578T breast
[55] = tested on: OVCAR-5 ovarian
[56] = tested on: U251 CNS
[57] = tested on: CAKI-1 renal

`O=C1OCC(C#Cc2ccccc2)=C1Br` was tested, and the GI50 [1] was 9.34 µM, the TGI [1] was > 43.9 µM and the GI50 [2] was 2.18 µM. It also gave a TGI [2] of 9.33 µM, a GI50 [3] of 1.72 µM and a TGI [3] of 5.75 µM. For the same molecule, the GI50 [4] was 3.14 µM, the TGI [4] was 14.1 µM and the GI50 [5] was 0.0201 µM. It also gave a TGI [5] of 0.384 µM, a GI50 [6] of 3.12 µM and a TGI [6] of 14.8 µM. It also gave a GI50 [7] of 4.77 µM, a TGI [7] of 33.5 µM and a GI50 [8] of 3.64 µM. The TGI [8] was 15 µM, the GI50 [9] was 19.5 µM and the TGI [9] was 48.5 µM. The GI50 [10] was 0.541 µM, the TGI [10] was > 31.6 µM and the GI50 [11] was 1.77 µM. It also gave a TGI [11] of 8.9 µM, a GI50 [12] of 3.42 µM and a TGI [12] of 13.2 µM. It also gave a GI50 [13] of 3.96 µM, a TGI [13] of 31.8 µM and a GI50 [14] of 2.27 µM. The TGI [14] was 7.26 µM, the GI50 [15] was 2.63 µM and the TGI [15] was 11.6 µM. It also gave a GI50 [16] of 1.1 µM, a TGI [16] of 5.58 µM and a GI50 [17] of 18.8 µM. It also gave a TGI [17] of 52.4 µM, a GI50 [18] of 17.4 µM and a TGI [18] of 49.7 µM. For the same molecule, the GI50 [19] was 17.7 µM, the TGI [19] was 48.8 µM and the GI50 [20] was 21.5 µM. For the same molecule, the TGI [20] was > 68.8 µM, the GI50 [21] was 8.26 µM and the TGI [21] was 28.2 µM. It also gave a GI50 [22] of 23.1 µM, a TGI [22] of 72 µM and a GI50 [23] of 17.2 µM. The TGI [23] was 35.5 µM, the GI50 [24] was 2.56 µM and the TGI [24] was 12.7 µM. The GI50 [25] was 10.8 µM, the TGI [25] was 48.3 µM and the GI50 [26] was 3.96 µM. For the same molecule, the TGI [26] was > 38.4 µM, the GI50 [27] was 2.58 µM and the TGI [27] was 12.5 µM. For the same molecule, the GI50 [28] was 52.9 µM, the TGI [28] was > 100 µM and the GI50 [29] was 4.75 µM. For the same molecule, the TGI [29] was > 100 µM, the GI50 [30] was 3.93 µM and the TGI [30] was 13.4 µM. For the same molecule, the GI50 [31] was 0.929 µM, the TGI [31] was 17.1 µM and the GI50 [32] was 4.76 µM. It also gave a TGI [32] of 20.6 µM, a GI50 [33] of 7.66 µM and a TGI [33] of 22.7 µM. The GI50 [34] was 3.15 µM, the TGI [34] was > 35.9 µM and the GI50 [35] was 6.03 µM. The TGI [35] was 27.4 µM, the GI50 [36] was 6.25 µM and the TGI [36] was > 63.2 µM. It also gave a GI50 [37] of 2.83 µM, a TGI [37] of 16 µM and a GI50 [38] of 2.42 µM. The TGI [38] was 9.81 µM, the GI50 [39] was 19.3 µM and the TGI [39] was 37.3 µM. It also gave a GI50 [40] of 13.2 µM, a TGI [40] of 38.2 µM and a GI50 [41] of 7.67 µM. It also gave a TGI [41] of 97.4 µM, a GI50 [42] of 2.94 µM and a TGI [42] of 9.5 µM. For the same molecule, the GI50 [43] was 18.1 µM, the TGI [43] was > 100 µM and the GI50 [44] was 10.7 µM. The TGI [44] was 26.1 µM, the GI50 [45] was 1.82 µM and the TGI [45] was 6.15 µM. It also gave a GI50 [46] of 0.648 µM, a TGI [46] of 3.09 µM and a GI50 [47] of 16.7 µM. For the same molecule, the TGI [47] was 34.6 µM, the GI50 [48] was 19.3 µM and the TGI [48] was 54.5 µM. For the same molecule, the GI50 [49] was 5.35 µM, the TGI [49] was > 54.7 µM and the GI50 [50] was 16.3 µM. The TGI [50] was > 67.5 µM, the GI50 [51] was 0.186 µM and the TGI [51] was > 100 µM. The GI50 [52] was 7.13 µM, the TGI [52] was 27.7 µM and the GI50 [53] was 2.69 µM. For the same molecule, the TGI [53] was 12.8 µM, the GI50 [54] was 6.2 µM and the TGI [54] was 19 µM. The GI50 [55] was > 100 µM, the TGI [55] was > 100 µM and the GI50 [56] was 4.88 µM. The TGI [56] was > 39.3 µM, the GI50 [57] was 5.61 µM and the TGI [57] was 13.4 µM.
